Test results: ChEMBL document CHEMBL3232724, “Decreasing acidity in a series of aldose reductase inhibitors: 2-Fluoro-4-(1H-pyrrol-1-yl)phenol as a scaffold for improved membrane permeation” (Bioorg Med Chem, 2014)

Legend:
Jejunum [1] = conditions: rat
[2] = target: Aldo-keto reductase family 1 member B1 (Rattus norvegicus) (UniProt P07943); assay: Inhibition of Fischer-344 rat lens ALR2 using D, L-glyceraldehyde as substrate at 100 uM by spectrophotometry; format: tissue-based; conditions: Lens of camera-type eye
Jejunum [3] = assay: Apparent permeability coefficient in Sprague-Dawley rat jejunum at 10 uM; format: ADME, tissue-based
Rattus norvegicus = species: Rattus norvegicus; assay: Selectivity index, ratio of IC50 for Fischer-344 rat kidney ALR1 to IC50 for Fischer-344 rat lens ALR2; format: tissue-based; conditions: Lens of camera-type eye
[4] = target: Aldo-keto reductase family 1 member B1 (Rattus norvegicus, UniProt P07943); assay: Inhibition of Fischer-344 rat lens ALR2 using D, L-glyceraldehyde as substrate by spectrophotometry; format: tissue-based, Lens of camera-type eye
[5] = target: Aldo-keto reductase family 1 member A1 (Rattus norvegicus, UniProt P51635); assay: Inhibition of Fischer-344 rat kidney ALR1 using D-glucuronate as substrate by spectrophotometry
[6] = Octanol-water distribution coefficient, log D of the compound at pH 8.5 by shake flask method; format: physicochemical
[7] = Octanol-water distribution coefficient, log D of the compound at pH 7.4 by shake flask method; format: physicochemical
[8] = Octanol-water distribution coefficient, log D of the compound at pH 8 by shake flask method; format: physicochemical
[9] = Octanol-water distribution coefficient, log D of the compound at pH 9.2 by shake flask method; format: physicochemical
[10] = Octanol-water distribution coefficient, log D of the compound at pH 8.25 by shake flask method; format: physicochemical
[11] = Octanol-water distribution coefficient, log D of the compound at pH 11 by shake flask method; format: physicochemical
[12] = Octanol-water distribution coefficient, log D of the compound at pH 7.8 by shake flask method; format: physicochemical
[13] = Inhibition of glucose-induced sorbitol accumulation in Wistar rat lens at 10 uM after 3 hrs by fluorescence assay (reference value: 755.27 +/- 19.7 nmol/g); format: functional, Lens of camera-type eye
[14] = Inhibition of glucose-induced sorbitol accumulation in Wistar rat lens at 50 uM after 3 hrs by fluorescence assay (reference value: 755.27 +/- 19.7 nmol/g); format: functional, Lens of camera-type eye
[15] = Octanol-water distribution coefficient, log D of the compound at pH 12 by shake flask method; format: physicochemical
[16] = Octanol-water distribution coefficient, log D of the compound at pH 7 by shake flask method; format: physicochemical
Jejunum [17] = assay: Apparent permeability coefficient in Sprague-Dawley rat jejunum at 100 uM; format: ADME, tissue-based

Aldo-keto reductase family 1 member A1, sequence (P51635 whole entry, looked up): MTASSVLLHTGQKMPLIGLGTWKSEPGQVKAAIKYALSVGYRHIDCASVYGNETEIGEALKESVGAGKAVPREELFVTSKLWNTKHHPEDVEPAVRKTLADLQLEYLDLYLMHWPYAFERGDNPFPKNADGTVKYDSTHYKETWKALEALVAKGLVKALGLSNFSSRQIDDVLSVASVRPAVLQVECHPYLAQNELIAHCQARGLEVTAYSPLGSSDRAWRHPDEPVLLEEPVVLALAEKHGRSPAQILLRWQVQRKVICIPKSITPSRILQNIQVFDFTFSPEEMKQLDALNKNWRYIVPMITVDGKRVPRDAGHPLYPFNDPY

Row | SMILES | inhibition [2] | Ratio IC50 (Rattus norvegicus) | IC50 [4] | IC50 [5] | also measured
1 | CC(C)NCC(O)COc1cccc2ccccc12 (configuration not stated) [PROPRANOLOL] | – | – | – | – | Papp (Jejunum [1]): 11.1 ucm/s
2 | O=C(c1ccccc1)c1ccn(-c2ccc([N+](=O)[O-])c(/C=N/O)c2)c1 | 36.3% | – | – | – | –
3 | O=C1OC2(c3ccc(O)cc3Oc3cc(O)ccc32)c2ccccc21 [FLUORESCEIN] | – | – | – | – | Papp (Jejunum [3]): 5.2 ucm/s
4 | O=C(c1ccc(-c2ccccc2)cc1)c1ccn(-c2ccc(O)c(F)c2)c1 | 14.2% | – | – | – | –
5 | O=C(c1ccn(-c2ccc(O)c(F)c2)c1)c1ccc(Br)cc1F | – | 1.43 | 24.8 µM | 35.5 µM | –
6 | COc1cccc(C(=O)c2ccn(-c3ccc(O)c(F)c3)c2)c1 | – | 4.25 | 6.75 µM | 28.7 µM | –
7 | O=C(c1cccn1-c1ccc(O)c(F)c1)C(F)F | – | > 1.65 | 60.8 µM | > 100 µM | –
8 | COc1ccc(C(=O)c2cccn2-c2ccc(O)c(F)c2)cc1 | 43.7% | – | – | – | –
9 | O=C(c1ccccc1)c1ccn(-c2ccc(O)c(/C=N/O)c2)c1 | 35.3% | – | – | – | –
10 | O=C(c1ccccc1)c1ccn(-c2ccc(/C=N/O)c(O)c2)c1 | 33.7% | – | – | – | –
11 | O=C(c1ccccc1)c1ccn(-c2ccccc2O)c1 | 16.1% | – | – | – | –
12 | O=C(c1ccccc1)c1ccn(-c2cccc(O)c2)c1 | 21.5% | – | – | – | –
13 | O=C(c1ccccc1)c1ccn(-c2ccc(F)c(F)c2)c1 | 5.81% | – | – | – | –
14 | O=C(c1ccccc1)c1ccn(-c2ccc(/C=N/O)c([N+](=O)[O-])c2)c1 | 60.5% | – | – | – | –
15 | O=C(c1ccccc1)c1cccn1-c1ccc(O)c(F)c1 | 37.2% | – | – | – | –
16 | O=C(c1cccn1-c1ccc(O)c(F)c1)C(F)(F)F | – | > 1.36 | 73.8 µM | > 100 µM | –
17 | COc1ccc(C(=O)c2ccn(-c3ccc(O)c(F)c3)c2)cc1 | – | 2.84 | 9.23 µM | 26.2 µM | –
18 | O=C(c1ccccc1)c1cc(C(=O)C(F)(F)F)n(-c2ccc(O)c(F)c2)c1 | – | 19.6 | 1.04 µM | 20.4 µM | logD [6]: 3.41; logD [7]: 3.86; logD [8]: 3.6; logD [9]: 2.48; logD [10]: 3.3; logD [11]: 0.66; logD [12]: 3.5; Activity [13]: 586.08 nmol/g; Activity [14]: 462.49 nmol/g; logD [15]: -0.38
19 | O=C(c1ccccc1)c1ccn(-c2ccc(O)cc2)c1 | – | > 1.8 | 55.4 µM | > 100 µM | –
20 | O=C(c1ccccc1)c1ccn(-c2ccc(O)c(F)c2)c1 | – | 3.79 | 10.1 µM | 38.2 µM | –
21 | O=C(c1ccccc1)c1cc(C(=O)C(F)F)n(-c2ccc(O)c(F)c2)c1 | – | 27.3 | 0.443 µM | 12.1 µM | logD [16]: 3.41; logD [6]: 2.62; logD [7]: 3.1; logD [8]: 2.98; logD [9]: 1.72; logD [11]: 0.1; Activity [13]: 487.07 nmol/g; Activity [14]: 396.89 nmol/g; Papp (Jejunum [17]): 6.4 ucm/s
22 | O=C(c1ccccc1)c1ccn(-c2cccc(/C=N/O)c2O)c1 | 23.5% | – | – | – | –
23 | O=C(c1ccc(OC(F)(F)F)cc1)c1ccn(-c2ccc(O)c(F)c2)c1 | – | > 2.4 | 41.7 µM | > 100 µM | –
